6 compounds from patent publication US20240294499A1, “TARGETED PROTEIN DEGRADATION USING BIFUNCTIONAL COMPOUNDS THAT BIND UBIQUITIN LIGASE AND TARGET MCL-1 PROTEIN” (Captor Therapeutics S.A., priority 2021, published 2024) can be followed below.

In experiment [1] the target is T1, [MCL-1]-[compound of formula (I)]-[CRBN/DDB1] complex (Homo sapiens, UniProt Q07820+Q96SW2). The experiment is described as follows: AlphaLISA dose response ternary complex formation assay. Particulars: for EC50: read-out: AlphaLISA dose response Average pEC50 by molecule (converted). It is filed as binding. In a few lines: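 EC50 comes from dose–response of AlphaLISA luminescence (excitation 680, emission 615 nm), normalised between DMSO background and an internal positive control, with concentrations past the hook point dropped. Ternary complex formed by mixing bead-bound biotin-hMCL-1 and His-CRBN/DDB1 (protein solutions 40 and 200 nM) with compound in 2% DMSO, 30 min, 25 °C.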
T1 sequence (Q07820 whole entry): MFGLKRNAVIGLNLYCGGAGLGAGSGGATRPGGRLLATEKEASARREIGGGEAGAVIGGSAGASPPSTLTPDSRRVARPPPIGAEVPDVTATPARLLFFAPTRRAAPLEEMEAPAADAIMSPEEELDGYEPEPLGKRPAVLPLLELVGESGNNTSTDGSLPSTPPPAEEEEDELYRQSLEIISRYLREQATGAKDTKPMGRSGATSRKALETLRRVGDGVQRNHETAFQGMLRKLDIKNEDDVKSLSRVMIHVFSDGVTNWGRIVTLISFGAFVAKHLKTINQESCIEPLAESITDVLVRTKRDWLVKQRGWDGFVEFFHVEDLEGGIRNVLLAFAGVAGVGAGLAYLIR
T1 sequence (Q96SW2 whole entry): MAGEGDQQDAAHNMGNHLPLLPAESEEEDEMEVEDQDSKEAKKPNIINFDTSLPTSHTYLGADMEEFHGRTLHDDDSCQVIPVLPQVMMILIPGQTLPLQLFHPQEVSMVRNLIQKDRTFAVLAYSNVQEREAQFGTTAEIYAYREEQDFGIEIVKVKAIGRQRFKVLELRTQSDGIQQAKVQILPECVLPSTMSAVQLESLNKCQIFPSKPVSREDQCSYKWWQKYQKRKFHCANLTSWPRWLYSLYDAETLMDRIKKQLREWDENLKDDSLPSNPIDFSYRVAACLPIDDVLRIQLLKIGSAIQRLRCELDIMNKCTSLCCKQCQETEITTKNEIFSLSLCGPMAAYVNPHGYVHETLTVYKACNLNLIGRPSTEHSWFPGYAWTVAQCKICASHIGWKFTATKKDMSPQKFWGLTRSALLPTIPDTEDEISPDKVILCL
T1 sequence (Q16531 whole entry partner): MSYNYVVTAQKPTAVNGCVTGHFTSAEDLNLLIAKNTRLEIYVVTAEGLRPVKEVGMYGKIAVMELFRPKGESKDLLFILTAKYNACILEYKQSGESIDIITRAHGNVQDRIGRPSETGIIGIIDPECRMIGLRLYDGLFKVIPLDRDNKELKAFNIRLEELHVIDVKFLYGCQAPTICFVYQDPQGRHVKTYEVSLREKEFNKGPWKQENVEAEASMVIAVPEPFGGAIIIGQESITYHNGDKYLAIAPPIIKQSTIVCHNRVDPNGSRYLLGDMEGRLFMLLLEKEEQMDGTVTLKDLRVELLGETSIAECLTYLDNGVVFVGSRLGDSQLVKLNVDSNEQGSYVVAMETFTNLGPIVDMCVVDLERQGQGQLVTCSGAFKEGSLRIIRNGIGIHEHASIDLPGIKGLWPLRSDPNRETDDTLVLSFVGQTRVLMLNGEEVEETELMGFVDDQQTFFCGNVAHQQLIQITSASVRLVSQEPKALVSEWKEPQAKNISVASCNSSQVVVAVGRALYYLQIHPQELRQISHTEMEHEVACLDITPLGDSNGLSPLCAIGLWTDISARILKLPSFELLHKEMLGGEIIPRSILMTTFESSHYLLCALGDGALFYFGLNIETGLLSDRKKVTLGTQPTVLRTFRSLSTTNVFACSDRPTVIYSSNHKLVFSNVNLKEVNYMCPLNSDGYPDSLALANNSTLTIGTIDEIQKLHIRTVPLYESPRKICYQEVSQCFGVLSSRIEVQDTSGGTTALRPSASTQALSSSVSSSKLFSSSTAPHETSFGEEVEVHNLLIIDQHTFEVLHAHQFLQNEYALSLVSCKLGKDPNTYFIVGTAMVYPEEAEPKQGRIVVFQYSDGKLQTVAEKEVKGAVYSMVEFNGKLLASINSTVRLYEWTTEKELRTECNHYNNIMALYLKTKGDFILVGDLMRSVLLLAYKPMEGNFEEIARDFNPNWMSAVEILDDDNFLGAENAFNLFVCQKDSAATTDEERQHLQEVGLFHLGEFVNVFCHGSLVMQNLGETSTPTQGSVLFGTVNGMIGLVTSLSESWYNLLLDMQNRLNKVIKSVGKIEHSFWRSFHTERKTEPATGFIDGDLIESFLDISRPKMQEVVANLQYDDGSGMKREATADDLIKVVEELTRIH

The next experiment relates to ARH-77 cells. The experiment is described as follows: Cell viability assay (CellTiter-Glo), ARH-77. Format: cell-based. Particulars: 1% FBS; for IC50: Homo sapiens, ARH-77, 24 hours incubation, read-out: Average pIC50 by molecule ARH-77 (converted). In a few lines: (§1)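 OPM-2, MV-4-11 and ARH-77 cells were grown in medium with 1% FBS and treated with compound in 1/3 dilutions from 30 uM (9–12 points, 0.5% DMSO). Viability was read by CellTiter-Glo luminescence after 24 hours and normalized to DMSO control.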

In experiment [2] the target is T1, [MCL-1]-[compound of formula (I)]-[CRBN/DDB1] complex. The experiment is described as follows: HTRF ternary complex assay. It is filed as binding. Conditions: ternary complex formation; for EC50: read-out: HTRF ternary complex Average pEC50 by molecule (converted). Here is the method: The effect of the bifunctional compounds of the invention on the formation of a ternary complex composed of [MCL-1]-[compound of formula (I)]-[CRBN/DDB1] was investigated.
Mix of protein solution were prepared: • 48 nM hMcl-1 and 105.6 nM CRBN was prepared in PPI Europium detection buffer with 2 mM DTT. • Acceptor and donor stock solutions were diluted 100 times in PPI Europium detection buffer. Equal volumes of both reagents were mixed. Finally giving 3 nM of Streptavidin-Eu cryptate […] and 6.67 nM of Anti-6× his-d2 […].
5 μl of protein mix was dispensed to all wells. The tested compounds in dose-response were dispensed onto a white 384-well low volume plate (Greiner, 784075). DMSO was backfilled to all wells, resulting in a final DMSO content of 0.5%. Wells containing only DMSO served as background. Next, 5 μl of solution with donor and acceptor was added to the wells.
The plate was sealed with transparent film and shaken using a VibroTurbulator for 60 see at level 3. The plate was then spun down shortly (10 s, 1000 rcf) and incubated at 25° C. for 180 min.
The read-out was performed with plate reader (Pherastar, BMG Labtech) in time resolved fluorescence mode. Filterset: TR 337 665 620.
The results were analyzed as follows: • 1) an average of fluorescence for background signal was calculated and used as a negative control; • 2) raw fluorescence values for tested compounds were normalized against negative controls; • 3) bell shape curve was fitted to a gaussian distribution using a non-linear least squares Gauss-Newton algorithm; • 4) EC50 and pEC50 values were determined.

A further experiment deals with MV-4-11 cells. The experiment is described as follows: Cell viability assay (CellTiter-Glo), MV-4-11. Conditions: 1% FBS; for IC50: Homo sapiens, MV4-11, 24 hours incubation, read-out: Average pIC50 by molecule MV-4-11 (converted). Format: cell-based. In short, it runs like this: as §1

Turning to `Cc1nn(C)c(C)c1-c1c(Cl)ccc2c(CCCOc3cccc4cc(F)ccc34)c(C(=O)O)n(CCCCN(C)C(=O)COc3cccc4c3CN(C3CCC(=O)NC3=O)C4=O)c12` (stereo not drawn) [Compound 326, 6-chloro-1-[4-(2-{[2-(2,6-dioxopiperidin-3-yl)-1-oxo-2,3-dihydro-1H-isoindol-4-yl]oxy}-N-methylacetamido)butyl]-3-{3-[(6-fluoronaphthalen-1-yl)oxy]propyl}-7-(1,3,5-trimethyl-1H-pyrazol-4-yl)-1H-indole-2-carboxylic acid], the EC50 in experiment [1] was under 100 nM; in experiment [2] it was under 10 nM. Further, the IC50 was over 10000 nM in the experiment on ARH-77 cells and at most 316 nM with MV-4-11 cells.
In the same order, the values of `Cc1nn(C)c(C)c1-c1c(Cl)ccc2c(CCCOc3cccc4cc(F)ccc34)c(C(=O)O)n(CCN3CCC(Nc4cccc5c4C(=O)N(C4CCC(=O)NC4=O)C5=O)CC3)c12` (stereo not drawn) [Compound 308] are under 100 nM, under 100 nM, over 3160 nM and at most 316 nM.
In the same order, the values of `Cc1nn(C)c(C)c1-c1c(Cl)ccc2c(CCCOc3cccc4cc(F)ccc34)c(C(=O)O)n(CCN3CCC4CN(C(=O)COc5cccc6c5CN(C5CCC(=O)NC5=O)C6=O)CC43)c12` (stereo not drawn) [Compound 301, 6-Chloro-1-{2-[5-(2-{[2-(2,6-dioxopiperidin-3-yl)-1-oxo-2,3-dihydro-1H-isoindol-4-yl]oxy}acetyl)-octahydropyrrolo[2,3-c]pyrrol-1-yl]ethyl}-3-{3-[(6-fluoronaphthalen-1-yl)oxy]propyl}-7-(1,3,5-trimethyl-1H-pyrazol-4-yl)-1H-indole-2-carboxylic acid] are under 10 nM, under 10 nM, over 10000 nM and at most 100 nM.
For the compound `Cc1nn(C)c(C)c1-c1c(Cl)ccc2c(CCCOc3cccc4cc(F)ccc34)c(C(=O)O)n(CCN3CCN(C(=O)COc4cccc5c4CN(C4CCC(=O)NC4=O)C5=O)CC3)c12` (atropisomer, axis not shown; (Sa)) [Compound 295, (Sa)-6-Chloro-1-(2-(4-(2-((2-(2,6-dioxopiperidin-3-yl)-1-oxoisoindolin-4-yl)oxy)acetyl)piperazin-1-yl)ethyl)-3-(3-((6-fluoronaphthalen-1-yl)oxy)propyl)-7-(1,3,5-trimethyl-1H-pyrazol-4-yl)-1H-indole-2-carboxylic acid], the “AlphaLISA dose response Average pEC50 by molecule” value in experiment [1] is over 7. Also, the “Average pIC50 by molecule ARH-77” value in the experiment on ARH-77 cells (24 hours incubation) is recorded as under 5.0. Moreover, in experiment [2], the “HTRF ternary complex Average pEC50 by molecule” value is over 7. The “Average pIC50 by molecule MV-4-11” value in the experiment on MV-4-11 cells (24 hours incubation) is at least 7.5.
For the compound `Cc1nn(C)c(C)c1-c1c(Cl)ccc2c(CCCOc3cccc4cc(F)ccc34)c(C(=O)O)n(CCN3CCN(C(=O)Cn4c(C)nc5c(C(=O)NC6CCC(=O)NC6=O)ccc(C)c54)CC3)c12` (stereo not drawn) [Compound 270, 6-Chloro-1-{2-[4-(2-{4-[(2,6-dioxopiperidin-3-yl)carbamoyl]-2,7-dimethyl-1H-1,3-benzodiazol-1-yl}acetyl)piperazin-1-yl]ethyl}-3-{3-[(6-fluoronaphthalen-1-yl)oxy]propyl}-7-(1,3,5-trimethyl-1H-pyrazol-4-yl)-1H-indole-2-carboxylic acid], the figures for the EC50 in experiment [1] and in experiment [2] were under 100 nM and under 10 nM, respectively. Moreover, the IC50 in the experiment on ARH-77 cells was over 10000 nM; with MV-4-11 cells, at most 100 nM.
Turning to `Cc1nn(C)c(C)c1-c1c(Cl)ccc2c(CCCOc3cccc4cc(F)ccc34)c(C(=O)O)n(CCCCCN(C)C(=O)COc3cccc4c3CN(C3CCC(=O)NC3=O)C4=O)c12` (stereo not drawn) [Compound 328, 6-Chloro-1-(5-(2-((2-(2,6-dioxopiperidin-3-yl)-1-oxoisoindolin-4-yl)oxy)-N-methylacetamido)pentyl)-3-(3-((6-fluoronaphthalen-1-yl)oxy)propyl)-7-(1,3,5-trimethyl-1H-pyrazol-4-yl)-1H-indole-2-carboxylic acid], the EC50 in experiment [1] and in experiment [2] was under 100 nM in each case. Also, the IC50 in the experiment on ARH-77 cells is over 3160 nM; with MV-4-11 cells, at most 31.6 nM.
